Data reported in US7781418B2, “Composition for treating bone disorders” (Isis Innovation Ltd., priority 2006, dated 2010).
Where a name gives a salt, the structure may show the parent alone.

Assays:
[1] = target: T1, farnesyl pyrophosphate synthase (FPPS) (Homo sapiens, UniProt P14324); assay: farnesyl pyrophosphate synthase (FPPS) inhibition assay; assay type: biochemical
T1 sequence (P14324 1-419): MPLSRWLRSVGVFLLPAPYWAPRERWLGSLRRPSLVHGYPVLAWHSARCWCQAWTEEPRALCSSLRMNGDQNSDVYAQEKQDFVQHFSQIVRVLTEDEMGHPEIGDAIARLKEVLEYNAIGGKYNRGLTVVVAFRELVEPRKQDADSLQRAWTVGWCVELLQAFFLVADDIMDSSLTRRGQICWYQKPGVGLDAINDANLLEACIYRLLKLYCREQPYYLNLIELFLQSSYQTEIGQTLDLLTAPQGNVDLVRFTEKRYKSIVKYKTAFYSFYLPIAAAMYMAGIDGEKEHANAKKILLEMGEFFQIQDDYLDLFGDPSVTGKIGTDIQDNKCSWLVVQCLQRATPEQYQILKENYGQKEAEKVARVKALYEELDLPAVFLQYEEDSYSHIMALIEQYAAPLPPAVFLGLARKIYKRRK
Procedure: The activity of the racemic mixture, is approximately 42 nM.

[2] = test system: bone resorption and mineralization; assay: Schenk Model: in vivo bone resorption inhibition and mineralization inhibition, lowest effective dose; details: for Lowest Effective Dose, Bone Mineral Density (BMD) / Lowest Effective Dose, Bone Mineral Content (BMC): head-to-head comparison of all three compounds; for Lowest Effective Dose, Bone Mineral Content (BMC): highest dose tested 0.1

SMILES	IC50 [1] [nM]	Lowest Effective Dose, Bone Mineral Density (BMD) [2] [mg P/kg]	Lowest Effective Dose, Bone Mineral Content (BMC) [2]	activity in the Schenk assay relative to enantiomer (1S,6R) and racemic mixture ([2]; compared with (1S,6R) enantiomer and corresponding racemic mixture)
O=P(O)(O)C1(P(=O)(O)O)CC2CCCNC2C1 (racemic) [Racemic Mixture]	~42	0.03	0.03 mg P/kg	–
O=P(O)(O)C1(P(=O)(O)O)C[C@@H]2CCCN[C@@H]2C1 [1R,6S Isomer, (1R,6S)-2-Azabicyclo[4.3.0]nonane-8,8-diphosphonic acid hydrochloride salt]	15	0.01	0.01 mg P/kg	more active
O=P(O)(O)C1(P(=O)(O)O)C[C@H]2CCCN[C@H]2C1 [1S,6R Isomer]	359	0.1	>0.1^2^ mg P/kg	–
